# Source: publication PMC12534982 (Journal of Experimental & Clinical Cancer Research : CR, 2025)
# Experiments:
# Type in all cases: cell-based, human
# [1] = test system: colorectal cancer cells; experiment: Intracellular ATP levels (CellTiter-Glo); conditions: 25 µM
# Description: Luminescence readings were recorded with a Victor Multilabel Plate Reader (PerkinElmer Life Sciences, Massachusetts, USA).
# [2] = test system: SW620 cells; experiment: Intracellular nucleotides, orotate and DHO by HPLC–MS/MS; conditions: 25 µM, 24 h
# Description: Cancer cells (2.2 × 10^6) were cultured in 100-mm Petri dishes and treated with DMSO or NK-A 17E-233I (25 µM) for 24 h. Nucleotides and related compounds were extracted from cell pellets by treatment with 0.5 M trichloroacetic acid (TCA) followed by neutralization and solvent evaporation as detailed in [30]. Dry extracts were stored at -70°C until further analysis. Protein pellets sedimented after TCA precipitation were re-dissolved in 1 mL of 100 mM NaOH, 5% SDS by incubation at 95 °C for 5 min, followed by complete re-dissolution through several syringe strokes with a 23G needle. The concentration of the re-dissolved protein was quantified using the Pierce™ BCA Protein Assay Kit (Thermo Fisher Scientific), with the amount of the metabolites referenced to protein content.
# On the day of metabolite analysis, the dry extracts were re-dissolved in 150 µL of water. Nucleotides, DHO and orotate concentrations were determined using HPLC–MS/MS using Acquity UPLC-Xevo™ TQ Mass Spectrometer (Waters, MA, USA), following the methodology described in [30]. The m/z transitions for DHO and orotate were 156.87 > 113.09 and 154.90 > 111.00, respectively. The identification of all compounds was based on retention time and specific ion transitions. The calibration curves generated with aqueous standards were processed concurrently, and the concentrations were derived from peak area interpolation using TargetLynx software (Waters, MA, USA).
# [3] = test system: colorectal cancer cells; experiment: Live-cell imaging; conditions: 25 µM, 24 h time-lapse
# Description: Following staining, cells were treated with either DMSO or NK-A 17E-233I (25 µM) and subjected to time-lapse imaging for another 24 h, with an acquisition time of 1 h between frames. Cells were maintained at 37 °C with 5% CO2 and 95% humidity using Okolab chambers and monitored with a Leica DMi8 microscope equipped with a Leica DFC9000GT camera. Images were captured in brightfield and at 405 nm to visualize the nuclei using a 20X objective (HC PL FLUOTAR 20x/0.75). Images were processed using Leica Application Suite X (LAS X) Life Science Microscope Software (v3.5.5.19976, RRID:SCR_013673).
# [4] = median [Minimum – Maximum], five experiments
# [5] = median [Minimum – Maximum], four experiments
smiles,measurement,setting,value
COc1cc(C)c(Oc2cc(C)cc(O)c2O)c(O)c1 [NK-A 17E-233I],ATP production / proliferation with non-physiological uridine,"[1]; 200 µM uridine, various time points",did not impact the production of ATP or cancer cell proliferation
same,levels of ATP,[1]; up to 24 h,reduced
same,levels of purine nucleotides,[2],remained unchanged
same,ADP amount,[2]; [4],"7,917 [5,048–9,389] pmoles/mg protein"
same,AMP + ADP + ATP amount,[2]; [4],"26,257 [24,352 – 27,848] pmoles/mg protein"
same,AMP amount,[2]; [4],"961 [405–2,739] pmoles/mg protein"
same,ATP amount,[2]; [4],"15,907 [14,173–21,694] pmoles/mg protein"
same,CDP amount,[2]; [4],351 [143–504] pmoles/mg protein
same,CMP + CDP + CTP amount,[2]; [4],"6,327 [6,028 – 10,285] pmoles/mg protein"
same,CMP amount,[2]; [4],263 [220–707] pmoles/mg protein
same,CTP amount,[2]; [4],"5,801 [5,142–9,519] pmoles/mg protein"
same,GDP amount,[2]; [4],"1,339 [1,008–1,566] pmoles/mg protein"
same,GMP + GDP + GTP amount,[2]; [4],"5,228 [4,902 – 7,797] pmoles/mg protein"
same,GTP amount,[2]; [4],"3,565 [3,407–6,418] pmoles/mg protein"
same,UDP amount,[2]; [4],"927 [867–1,161] pmoles/mg protein"
same,UMP amount,[2]; [4],335 [81–424] pmoles/mg protein
same,UTP amount,[2]; [4],"4,013 [3,397–6,651] pmoles/mg protein"
same,GMP amount,"[2]; median [Minimum – Maximum], five experiments, undetectable treated as zero",156 [0–268] pmoles/mg protein
same,DHO amount,[2]; [5],26.5 [18.3–228.5] pmoles/mg protein
same,Orotate amount,[2]; [5],70.5 [61.7–137.1] pmoles/mg protein
same,progression through mitosis (G2/M),[3],failed to progress through mitosis
